For 24 compounds, IC50 results are on record in US9694016B2 (Novartis AG, priority 2013, dated 2017).

pIC50: −log10 of the molar value.

Sequence of b-Raf (V600E) (P15056 whole entry V600E): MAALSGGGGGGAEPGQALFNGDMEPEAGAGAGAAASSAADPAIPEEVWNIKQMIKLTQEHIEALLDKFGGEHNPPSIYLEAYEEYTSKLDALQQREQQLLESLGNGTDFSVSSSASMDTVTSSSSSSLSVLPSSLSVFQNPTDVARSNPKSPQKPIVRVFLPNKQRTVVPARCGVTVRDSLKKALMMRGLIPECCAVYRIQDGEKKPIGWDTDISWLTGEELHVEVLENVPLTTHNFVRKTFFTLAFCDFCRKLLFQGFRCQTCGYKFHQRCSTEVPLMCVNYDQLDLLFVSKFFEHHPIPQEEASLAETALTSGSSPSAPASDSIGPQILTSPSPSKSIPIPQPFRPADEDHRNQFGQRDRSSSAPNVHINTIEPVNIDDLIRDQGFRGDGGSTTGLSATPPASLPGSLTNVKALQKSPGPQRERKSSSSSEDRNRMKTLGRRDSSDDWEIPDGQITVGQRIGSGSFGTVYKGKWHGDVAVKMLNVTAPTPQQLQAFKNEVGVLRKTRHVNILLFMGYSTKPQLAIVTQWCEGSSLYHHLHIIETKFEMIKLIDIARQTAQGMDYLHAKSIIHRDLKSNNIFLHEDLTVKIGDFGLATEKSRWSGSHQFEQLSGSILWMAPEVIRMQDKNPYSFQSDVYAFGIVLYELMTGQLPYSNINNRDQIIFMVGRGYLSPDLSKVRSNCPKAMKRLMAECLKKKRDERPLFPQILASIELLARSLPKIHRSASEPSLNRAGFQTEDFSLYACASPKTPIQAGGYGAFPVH

This test addresses b-Raf (V600E) (Homo sapiens (Human), UniProt P15056, V600E). Particulars: read-out: b-Raf IC-50; AlphaScreen, 60 min pre-incubation, 3 hours reaction.
For the compound `Cc1ccc(NC(=O)c2cc(C(F)(F)F)ccn2)cc1-c1cc(N2CCOCC2)c(OCCO)nn1` [Example 586, N-(3-(6-(2-hydroxyethoxy)-5-morpholinopyridazin-3-yl)-4-methylphenyl)-4-(trifluoromethyl)picolinamide], the pIC50 is 9.00.
`Cc1ccc(NC(=O)c2ccnc(C(C)(F)F)c2)cc1-c1cc(N2CCOCC2)c(OCCO)nn1` [Example 587, 2-(1,1-difluoroethyl)-N-(3-(6-(2-hydroxyethoxy)-5-morpholinopyridazin-3-yl)-4-methylphenyl)isonicotinamide]: the pIC50 was 8.96.
With `Cc1ccc(NC(=O)c2ccnc(C(C)(C)F)c2)cc1-c1cc(N2CCOCC2)c(OCCO)nn1` [Example 588, 2-(2-fluoropropan-2-yl)-N-(3-(6-(2-hydroxyethoxy)-5-morpholinopyridazin-3-yl)-4-methylphenyl)isonicotinamide], the pIC50 was 8.66.
Consider `CCC(F)(F)c1cc(C(=O)Nc2ccc(C)c(-c3cc(N4CCOCC4)c(OCCO)nn3)c2)ccn1` [Example 589, 2-(1,1-difluoropropyl)-N-(3-(6-(2-hydroxyethoxy)-5-morpholinopyridazin-3-yl)-4-methylphenyl)isonicotinamide], for which the pIC50 was 8.82.
In the case of `Cc1ccc(NC(=O)c2ccnc(C(C)(C)C#N)c2)cc1-c1cc(N2CCOCC2)c(OCCO)nn1` [Example 591, 2-(2-cyanopropan-2-yl)-N-(3-(6-(2-hydroxyethoxy)-5-morpholinopyridazin-3-yl)-4-methylphenyl)isonicotinamide], the pIC50 was 8.68.
For `Cc1ccc(NC(=O)c2ccnc(C(C)(F)F)c2)cc1-c1cc(N2CCOCC2)c(OC(C)C)nn1` [Example 592, 2-(1,1-difluoroethyl)-N-(3-(6-isopropoxy-5-morpholinopyridazin-3-yl)-4-methylphenyl)isonicotinamide], the pIC50 is 9.15.
Consider `Cc1ccc(NC(=O)c2ccnc(C(F)F)c2)cc1-c1cc(N2CCOCC2)c(OC(C)C)nn1` [Example 593, 2-(difluoromethyl)-N-(3-(6-isopropoxy-5-morpholinopyridazin-3-yl)-4-methylphenyl)isonicotinamide], for which the pIC50 is 9.22.
`Cc1ccc(NC(=O)c2cc(C(F)(F)F)ccn2)cc1-c1cc(N2CCOCC2)c(OC(C)C)nn1` [Example 594, N-(3-(6-isopropoxy-5-morpholinopyridazin-3-yl)-4-methylphenyl)-4-(trifluoromethyl)picolinamide]: the pIC50 is 9.10.
For the compound `Cc1ccc(NC(=O)c2ccnc(C(C)(C)F)c2)cc1-c1cc(N2CCOCC2)c(OC(C)C)nn1` [Example 595, 2-(2-fluoropropan-2-yl)-N-(3-(6-isopropoxy-5-morpholinopyridazin-3-yl)-4-methylphenyl)isonicotinamide], the pIC50 is 9.22.
Next, `COCCOc1nnc(-c2cc(NC(=O)c3ccnc(C(C)(F)F)c3)ccc2C)cc1N1CCOCC1` [Example 597, 2-(1,1-difluoroethyl)-N-(3-(6-(2-methoxyethoxy)-5-morpholinopyridazin-3-yl)-4-methylphenyl)isonicotinamide]: 9.30; `COCCOc1nnc(-c2cc(NC(=O)c3ccnc(C(F)F)c3)ccc2C)cc1N1CCOCC1` [Example 598, 2-(difluoromethyl)-N-(3-(6-(2-methoxyethoxy)-5-morpholinopyridazin-3-yl)-4-methylphenyl)isonicotinamide]: 8.96; `COCCOc1nnc(-c2cc(NC(=O)c3cc(C(F)(F)F)ccn3)ccc2C)cc1N1CCOCC1` [Example 599, N-(3-(6-(2-methoxyethoxy)-5-morpholinopyridazin-3-yl)-4-methylphenyl)-4-(trifluoromethyl)picolinamide]: 9.30.
Take `COCCOc1nnc(-c2cc(NC(=O)c3ccnc(C(C)(C)F)c3)ccc2C)cc1N1CCOCC1` [Example 600, 2-(2-fluoropropan-2-yl)-N-(3-(6-(2-methoxyethoxy)-5-morpholinopyridazin-3-yl)-4-methylphenyl)isonicotinamide]: the pIC50 was 9.10.
On to `COCCOc1nnc(-c2cc(NC(=O)c3ccnc(C(C)(C)C#N)c3)ccc2C)cc1N1CCOCC1` [Example 601, 2-(2-cyanopropan-2-yl)-N-(3-(6-(2-methoxyethoxy)-5-morpholinopyridazin-3-yl)-4-methylphenyl)isonicotinamide], for which the pIC50 is 8.96.
With `COc1nnc(-c2cc(NC(=O)c3ccnc(C(C)(F)F)c3)cnc2C)cc1N1CCOCC1` [Example 603, 2-(1,1-difluoroethyl)-N-(5-(6-methoxy-5-morpholinopyridazin-3-yl)-6-methylpyridin-3-yl)isonicotinamide], the pIC50 was 8.57.
Next, `COc1nnc(-c2cc(NC(=O)c3cccc(C(F)F)c3)cnc2C)cc1N1CCOCC1` [Example 604, 3-(difluoromethyl)-N-(5-(6-methoxy-5-morpholinopyridazin-3-yl)-6-methylpyridin-3-yl)benzamide]: 8.64; `COc1nnc(-c2cc(NC(=O)c3ccnc(C(F)(F)F)c3)cnc2C)cc1N1CCOCC1` [Example 605, N-(5-(6-methoxy-5-morpholinopyridazin-3-yl)-6-methylpyridin-3-yl)-2-(trifluoromethyl)isonicotinamide]: 8.57; `COc1nnc(-c2cc(NC(=O)c3ccnc(C4CC4)c3)cnc2C)cc1N1CCOCC1` [Example 606, 2-cyclopropyl-N-(5-(6-methoxy-5-morpholinopyridazin-3-yl)-6-methylpyridin-3-yl)isonicotinamide]: 8.46.
For `CCC(F)(F)c1cc(C(=O)Nc2cnc(C)c(-c3cc(N4CCOCC4)c(OC)nn3)c2)ccn1` [Example 607, 2-(1,1-difluoropropyl)-N-(5-(6-methoxy-5-morpholinopyridazin-3-yl)-6-methylpyridin-3-yl)isonicotinamide] the value was 8.33; for `CCOc1nnc(-c2cc(NC(=O)c3cccc(C(F)(F)F)c3)cnc2C)cc1N1CCOCC1` [Example 609, N-(5-(6-ethoxy-5-morpholinopyridazin-3-yl)-6-methylpyridin-3-yl)-3-(trifluoromethyl)benzamide], 9.05; for `CCOc1nnc(-c2cc(NC(=O)c3ccnc(C(C)(C)F)c3)cnc2C)cc1N1CCOCC1` [Example 610, N-(5-(6-ethoxy-5-morpholinopyridazin-3-yl)-6-methylpyridin-3-yl)-2-(2-fluoropropan-2-yl)isonicotinamide], 8.35.
For the compound `CCOc1nnc(-c2cc(NC(=O)c3cc(C(F)(F)F)ccn3)cnc2C)cc1N1CCOCC1` [Example 611, N-(5-(6-ethoxy-5-morpholinopyridazin-3-yl)-6-methylpyridin-3-yl)-4-(trifluoromethyl)picolinamide], the pIC50 is 8.89.
Take `CCOc1nnc(-c2cc(NC(=O)c3ccnc(C4CC4)c3)cnc2C)cc1N1CCOCC1` [Example 612, 2-cyclopropyl-N-(5-(6-ethoxy-5-morpholinopyridazin-3-yl)-6-methylpyridin-3-yl)isonicotinamide]: the pIC50 was 8.74.
With `CCOc1nnc(-c2cc(NC(=O)c3ccnc(C(C)(C)C#N)c3)cnc2C)cc1N1CCOCC1` [Example 613, 2-(2-cyanopropan-2-yl)-N-(5-(6-ethoxy-5-morpholinopyridazin-3-yl)-6-methylpyridin-3-yl)isonicotinamide], the pIC50 is 8.00.
